Test results: article PMC11124870, “Effect of Antioxidants in Medicinal Products on Intestinal Drug Transporters” (Pharmaceutics, 2024)
Where “and” joins values, the source holds several entries; their conditions need not be identical. Identical values can stand only once.

Assays:
BCRP [1] = target: T1, BCRP (Homo sapiens, UniProt Q9UNQ0); test: Vesicular transport assay, 3H-CCK8 uptake in BCRP membrane vesicles; type: biochemical; parameters: purchased ThermoFisher Scientific GM0008; host or cells: Sf9 membrane vesicles
T1 sequence (Q9UNQ0 1-655): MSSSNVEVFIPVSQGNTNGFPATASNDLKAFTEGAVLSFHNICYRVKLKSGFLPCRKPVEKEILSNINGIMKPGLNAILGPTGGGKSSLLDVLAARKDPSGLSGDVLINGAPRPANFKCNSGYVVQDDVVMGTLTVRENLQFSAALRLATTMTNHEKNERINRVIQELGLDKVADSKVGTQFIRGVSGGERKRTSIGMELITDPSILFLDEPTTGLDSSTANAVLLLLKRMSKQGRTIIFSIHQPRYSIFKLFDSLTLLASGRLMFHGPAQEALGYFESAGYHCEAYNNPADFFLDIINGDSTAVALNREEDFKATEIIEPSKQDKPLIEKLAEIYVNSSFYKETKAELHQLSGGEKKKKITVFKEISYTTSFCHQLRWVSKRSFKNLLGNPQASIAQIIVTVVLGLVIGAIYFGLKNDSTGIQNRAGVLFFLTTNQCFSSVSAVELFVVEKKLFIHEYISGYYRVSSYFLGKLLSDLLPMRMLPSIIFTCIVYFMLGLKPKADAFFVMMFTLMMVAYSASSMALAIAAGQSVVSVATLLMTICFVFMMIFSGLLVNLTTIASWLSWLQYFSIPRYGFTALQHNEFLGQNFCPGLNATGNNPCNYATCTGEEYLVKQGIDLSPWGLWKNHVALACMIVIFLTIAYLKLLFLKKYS
Procedure: The vesicular transport assay was performed using Spodoptera frugiperda 9 (Sf9) membrane vesicles overexpressing human P-gp or BCRP, as reported previously with minor modifications. In brief, Isoplate 96-well flat-bottom white plates were preincubated with HBSS containing 0.5 mg/mL BSA on an orbital shaker in a 37 °C incubator at 90 rpm for 60 min followed by washing with HBSS. The assay mixture (75 µL/well) contained a probe substrate and either vehicle control, a known inhibitor of P-gp or BCRP, or an antioxidant, in vesicle uptake buffer (50 mM MOPS-Tris, pH 7.0 + 70 mM KCl + 7.5 mM MgCl2) prewarmed to 37 °C. After addition of the assay mixture, 5 μL/well (5 μg/μL stock concentration of the vesicles) of vesicles overexpressing human P-gp or BCRP was added. Uptake assays were initiated by adding 20 μL of either 25 mM adenosine triphosphate (ATP) or 25 mM adenosine monophosphate (AMP) to a final concentration of 5 mM. Plates were incubated at 37 °C for 20 min with orbital shaking (90 rpm). After 20 min, the uptake was quenched by adding 150 μL of ice-cold wash buffer (40 mM MOPS-Tris, pH 7.0 + 70 mM KCl) to each well, and the mixture was transferred to a 96-well filtration plate. Vacuum was applied, and the vesicles were washed three times with wash buffer. Vesicles were then lysed with 100 µL of MicroScint-20.

BCRP [2] = target: T1, BCRP; test: Transwell transport assay, basal-to-apical prazosin flux in MDCK-hBCRP-cMDR1-KO cells; conditions: BHA 178 µM on both sides; 3H-prazosin 1 µM; 4 h
Procedure: The transport assay was performed using MDCK-hMDR1-cMDR1-KO, MDCK-cMDR1-KO, and MDCK-hBCRP-cMDR1-KO as reported previously with minor modifications. In brief, 133,000 cells were seeded onto a Transwell membrane insert, a semipermeable polyethylene terephthalate membrane. During the differentiation process, the medium volume in the apical chamber was kept at 300 μL, while the basal chamber contained 1000 μL. The cells were allowed to differentiate for 7–9 days at 37 °C in a humidified incubator with 5% CO2. Before starting transporter assays, the integrity of the cell monolayer was checked using lucifer yellow permeability assays. […] From the basal chamber, 100 μL samples were collected for fluorescence measurements using GloMax® Explorer with a 475 nm excitation filter and a 500–550 nm emission filter to calculate the percent permeability per well.
To assess the flux of digoxin or prazosin from the basal to apical side, the cells were washed twice with HBSS. […] All apical and basal samples were mixed with scintillation fluid (EcoLite(+)™ liquid scintillation cocktail), and their radioactivity was measured using liquid scintillation counting (Beckman LS6500). […] For data analysis, the disintegration per minute counts of digoxin or prazosin from the apical samples were converted to picomoles using radioactivity measured in the substrate solution.

OATP2B1 = target: T2, OATP2B1 (Homo sapiens, UniProt O94956); test: 3H-valsartan uptake inhibition in HEK-293-OATP2B1 cells; conditions: read-out: IC50 OATP2B1, valsartan uptake, substrate 3H-valsartan, three independent experiments
T2 sequence (O94956 1-709): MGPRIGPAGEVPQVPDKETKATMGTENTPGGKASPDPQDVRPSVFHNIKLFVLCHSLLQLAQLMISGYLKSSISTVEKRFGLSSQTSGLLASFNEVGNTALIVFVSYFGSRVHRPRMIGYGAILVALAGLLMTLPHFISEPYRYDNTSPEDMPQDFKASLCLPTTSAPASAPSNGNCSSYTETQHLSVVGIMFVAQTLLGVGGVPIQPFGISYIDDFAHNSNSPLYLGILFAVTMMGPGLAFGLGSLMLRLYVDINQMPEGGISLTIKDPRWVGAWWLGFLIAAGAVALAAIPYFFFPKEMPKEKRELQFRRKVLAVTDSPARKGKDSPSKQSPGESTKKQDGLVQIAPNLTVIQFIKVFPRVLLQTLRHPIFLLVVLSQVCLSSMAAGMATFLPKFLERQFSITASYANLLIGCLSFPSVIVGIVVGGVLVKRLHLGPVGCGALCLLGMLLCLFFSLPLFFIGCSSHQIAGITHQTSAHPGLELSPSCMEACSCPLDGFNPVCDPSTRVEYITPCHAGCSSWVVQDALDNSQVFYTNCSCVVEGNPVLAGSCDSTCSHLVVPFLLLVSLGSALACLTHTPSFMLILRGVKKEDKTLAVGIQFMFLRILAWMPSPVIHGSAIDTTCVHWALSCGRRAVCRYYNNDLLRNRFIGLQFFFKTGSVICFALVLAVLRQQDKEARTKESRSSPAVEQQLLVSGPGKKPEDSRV
Procedure: The uptake transporter assay was performed as reported previously with minor modifications [15]. A day before the uptake assay, Isoplate 96-well plates were coated with poly-D-lysine in PBS with calcium and magnesium and washed with PBS. […] An assay mixture of ^3H-estrone sulfate, a known inhibitor of OATP2B1, or an antioxidant was prepared and incubated in a 37 °C incubator for 10 min. The cells were washed with ice-cold HBSS three times and incubated with MicroScint fluid on a shaker for 1 h for cell lysis. Radioactivity was measured by liquid scintillation counting with a MicroBeta^2® microplate counter. […] On the day of experiment, cells were washed twice with 0.4 mL of HBSS per well and then pre-incubated for 10–20 min in 0.4 mL of HBSS. […] Uptake of ^3H-valsartan was stopped after 15 min by washing three times with ice-cold HBSS. Cells were lysed in 750 µL of lysis buffer (0.1 N NaOH and 0.1% SDS in double-distilled water) per well while shaking for 60 min. A total of 690 µL of the lysate from each well was then added to 2.5 mL of EcoLite scintillation fluid. The radioactivity was determined on a LS6500 Scintillation Counter (Beckman Coulter). Protein concentration was measured with a Pierce™ BCA protein assay kit. The radioactivity in each well was corrected for protein concentration. All values were determined in triplicate, and the final values are expressed as % uptake relative to negative control (1% DMSO).
Antioxidants were screened at a concentration of 200 μM.

COc1ccc(O)cc1C(C)(C)C [Butylated hydroxyanisole (BHA), 2-tert-Butyl-4-hydroxyanisole]
Inhibition of BCRP (BCRP [1]; 200 µM, 3H-CCK8): at least 50% | % Uptake of 3H-CCK8 BCRP (BCRP [1]; antioxidant 200 µM, uptake with DMSO set as 100%, mean ± SD, three replicates, membrane vesicles): 46.7 ± 5.5% | IC50 (BCRP [1]; substrate 3H-CCK8, mean ± SD of three independent experiments): 206 ± 14 µM | Inhibition of prazosin efflux (basal to apical) (BCRP [2]): did not inhibit prazosin efflux | IC50 (OATP2B1): 19 µM and 19.1 µM
